The results in this text go back to patent US20250136581A1, “SUBSTITUTED TRIAZOLE DERIVATIVE, PREPARATION METHOD THEREFOR, PHARMACEUTICAL COMPOSITION THEREOF, AND USE THEREOF” (SHANGHAI SIMR BIOTECHNOLOGY CO., LTD., priority 2021, published 2025).

Read-outs that look alike come from different tables or passages of the source.

Experiment [1] has as its target human α5β3γ2 receptors (α5-GABAA receptor) (Homo sapiens (Human), UniProt P18507+P31644). Description: 3H-flunitrazepam competition binding, human α5β3γ2 GABAA receptor. The note with it: HEK293 cell membranes, 1 nM 3H-flunitrazepam. The method, boiled down:
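Radioligand displacement of 1 nM 3H-flunitrazepam from membranes of HEK293 lines stably expressing the human subtypes, 1 h at room temperature, compound in 8-point 4-fold series. Bound label on GF/C filters counted by scintillation; Ki derived from fitted IC50, with flumazenil as low control.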

In experiment [2] the target is α5-GABAA receptor (α5, β3, γ2 subunits) (Homo sapiens (Human), UniProt P18507+P31644). As to the kind of experiment: Whole cell patch clamp, inverse agonist efficacy in HEK293 cells expressing α5-GABAA receptor. The class given is cell-based. To be noted: HEK293, drug 100 nM, GABA 0.05 μM, −60 mV; read-out: Compound inverse agonist efficacy %. The gist of the method: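 Compounds screened at 100 nM against current induced by 0.05 μM GABA in monoclonal HEK293 cells stably expressing α5β3γ2 GABAA receptors. Recording by whole-cell voltage clamp (−60 mV, pH 7.4 bath, CsCl pipette); efficacy calculated from leak-corrected currents before and after drug.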

In the case of `Cc1nnn(-c2ccc(C(F)F)cc2)c1COc1ccc(N2CCN3[C@@H](C2)C(=O)N[C@@H]2CCC[C@@H]23)nn1` [Example 198, (4aS,6aR,9aS)-3-(6-((1-(4-(difluoromethyl)phenyl)-4-methyl-1H-1,2,3-triazol-5-yl)methoxy)pyridazin-3-yl)decahydrocyclopenta[e]pyrazino[1,2-a]pyrazin-5(1H)-one], the Ki in experiment [1] (α5-GABAAR Ki) came out at 3.13 nM. Further, in experiment [2], the inhibition at 0.1 µM turned out to be 48.2%.

Take `Cc1nnn(-c2ccc(CF)cc2)c1COc1ccc(N2CCN3CCNC(=O)[C@@H]3C2)nn1` [Example 162, (S)-8-(6-((1-(4-(Fluoromethyl)phenyl)-4-methyl-1H-1,2,3-triazol-5-yl)methoxy)pyridazin-3-yl)hexahydro-2H-pyrazino[1,2-a]pyrazin-1(6H)-one]: the Ki in experiment [1] (read-out: α5-GABAAR Ki) is 2.58 nM. Further, the inhibition at 0.1 µM in experiment [2] was determined as 47.7%.

With `Cc1nnn(-c2ccc(C(F)F)cc2)c1COc1ccc(N2CCN3CCOC[C@@H]3C2)nn1` [Example 13, (S)-8-(6-((1-(4-(Difluoromethyl)phenyl)-4-methyl-1H-1,2,3-triazol-5-yl)methoxy)pyridazin-3-yl)octahydropyrazino[2,1-c][1,4]oxazine], the Ki in experiment [1] (read-out: α5-GABAAR Ki) was found to be 2.2 nM. Further, the inhibition at 0.1 µM in experiment [2] was 43.3%.

Consider `Cc1nnn(-c2ccc(C(F)F)cc2)c1COc1ccc(N2CC3COCCN3C2=O)nn1` (centres unmarked) [Example 180, 2-(6-((1-(4-(Difluoromethyl)phenyl)-4-methyl-1H-1,2,3-triazol-5-yl)methoxy)pyridazin-3-yl)hexahydro-3H-imidazo[5,1-c][1,4]oxazin-3-one], for which, in experiment [1] (read-out: α5-GABAAR Ki), the inhibition constant Ki turned out to be 1.19 nM. In addition, the inhibition at 0.1 µM in experiment [2] was found to be 40.3%.

Take `Cc1nnn(-c2ccc(C(F)F)cc2)c1COc1ccc(N2CCN(CC3CCCO3)C(=O)C2)nn1` (centres unmarked) [Example 96, 4-(6-((1-(4-(Difluoromethyl)phenyl)-4-methyl-1H-1,2,3-triazol-5-yl)methoxy)pyridazin-3-yl)-1-((tetrahydrofuran-2-yl)methyl)piperazin-2-one]: the Ki in experiment [1] (read-out: α5-GABAAR Ki) was found to be 1.34 nM. Further, the inhibition at 0.1 µM in experiment [2] stood at 46.5%.

Take `Cc1nnn(-c2ccc(C(F)F)cc2)c1COc1ccc(C2=CC(=O)NCC2)nn1` [Example 57, 4-(6-((1-(4-(Difluoromethyl)phenyl)-4-methyl-1H-1,2,3-triazol-5-yl)methoxy)pyridazin-3-yl)-5,6-dihydropyridin-2(1H)-one]: the Ki in experiment [1] (read-out: α5-GABAAR Ki) is 0.27 nM. Besides, the inhibition at 0.1 µM in experiment [2] came to 52%.

In the case of `O=C1CN(c2ccc(OCc3cnnn3-c3ccc(C(F)F)cc3)nn2)CCN1` [Example 132, 4-(6-((1-(4-(Difluoromethyl)phenyl)-1H-1,2,3-triazol-5-yl)methoxy)pyridazin-3-yl)piperazin-2-one], in experiment [1] (read-out: α5-GABAAR Ki), the Ki is 12.1 nM. Moreover, in experiment [2], the inhibition at 0.1 µM is 53.2%.

Regarding `Cc1nnn(-c2ccc(C(F)F)cc2)c1COc1ccc(N2CC(C(=O)N3CC4CC3CO4)C2)nn1` (centres unmarked) [Example 157, (2-Oxa-5-azabicyclo[2.2.1]heptan-5-yl)(1-(6-((1-(4-(difluoromethyl)phenyl)-4-methyl-1H-1,2,3-triazol-5-yl)methoxy)pyridazin-3-yl)azetidin-3-yl)methanone], the Ki in experiment [1] (read-out: α5-GABAAR Ki) was 3.53 nM. In addition, in experiment [2], the inhibition at 0.1 µM is 44.2%.

On to `Cc1nnn(-c2ccc(C(F)F)cc2)c1COc1ccc(N2CC(=O)N3CCN(C)CC3C2)nn1` (centres unmarked) [Example 69, 2-(6-((1-(4-(Difluoromethyl)phenyl)-4-methyl-1H-1,2,3-triazol-5-yl)methoxy)pyridazin-3-yl)-8-methylhexahydro-1H-pyrazino[1,2-a]pyrazin-4(6H)-one], for which, in experiment [1] (read-out: α5-GABAAR Ki), the Ki is 0.9 nM. The inhibition at 0.1 µM in experiment [2] came out at 55.1%.

Turning to `Cc1nnn(-c2ccc(C(F)F)cc2)c1COc1cnc(N2CCN3CCNC(=O)[C@@H]3C2)cn1` [Example 178, (S)-8-(5-((1-(4-(Difluoromethyl)phenyl)-4-methyl-1H-1,2,3-triazol-5-yl)methoxy)pyrazin-2-yl)hexahydro-2H-pyrazino[1,2-a]pyrazin-1(6H)-one], the Ki in experiment [1] (read-out: α5-GABAAR Ki) stood at 17.2 nM. For the same compound, the inhibition at 0.1 µM in experiment [2] was 49.7%.

`Cc1nnn(-c2ccc(C(F)F)cc2)c1COc1ccc(N2CCN(CCCc3ccc(C#N)cc3)C(=O)C2)nn1` [Example 145, 4-(3-(4-(6-((1-(4-(Difluoromethyl)phenyl)-4-methyl-1H-1,2,3-triazol-5-yl)methoxy)pyridazin-3-yl)-2-oxopiperazin-1-yl)propyl)benzonitrile]: the Ki in experiment [1] (read-out: α5-GABAAR Ki) was found to be 1.27 nM. For the same compound, the inhibition at 0.1 µM in experiment [2] is 69%.

For the compound `Cc1nnn(-c2ccc(C(F)F)cc2)c1COc1ccc(N2CCN(CCN3CCC(F)(F)C3)C(=O)C2)nn1` [Example 110, 4-(6-((1-(4-(Difluoromethyl)phenyl)-4-methyl-1H-1,2,3-triazol-5-yl)methoxy)pyridazin-3-yl)-1-(2-(3,3-difluoropyrrolidin-1-yl)ethyl)piperazin-2-one], the inhibition constant (Ki) in experiment [1] (read-out: α5-GABAAR Ki) came to 1.6 nM. Moreover, the inhibition at 0.1 µM in experiment [2] came to 47.5%.

As for `CC(=O)N1CCN(c2ccc(OCc3c(C)nnn3-c3ccc(C(F)F)cc3)nn2)CC1` [Example 171, 1-(4-(6-((1-(4-(Difluoromethyl)phenyl)-4-methyl-1H-1,2,3-triazol-5-yl)methoxy)pyridazin-3-yl)piperazin-1-yl)ethan-1-one], the Ki in experiment [1] (read-out: α5-GABAAR Ki) was 1.07 nM. Also, the inhibition at 0.1 µM in experiment [2] stood at 42%.

As for `Cc1nnn(-c2ccc(C(F)F)cc2)c1COc1ccc(N2CCCC2=O)nn1` [Example 20, 1-(6-((1-(4-(Difluoromethyl)phenyl)-4-methyl-1H-1,2,3-triazol-5-yl)methoxy)pyridazin-3-yl)pyrrolidin-2-one], the Ki in experiment [1] (read-out: α5-GABAAR Ki) turned out to be 1.97 nM. The inhibition at 0.1 µM in experiment [2] was 51.2%.

Consider `COc1cc(N2CCNC(=O)C2)nnc1OCc1c(C)nnn1-c1ccc(C(F)F)cc1` [Example 134, 4-(6-((1-(4-(Difluoromethyl)phenyl)-4-methyl-1H-1,2,3-triazol-5-yl)methoxy)-5-methoxypyridazin-3-yl)piperazin-2-one], for which the Ki in experiment [1] (read-out: α5-GABAAR Ki) turned out to be 1.5 nM. For the same compound, the inhibition at 0.1 µM in experiment [2] stood at 45.7%.

As to `Cc1nnn(-c2ccc(C(F)F)cc2)c1COc1ccc(N2CC(C(=O)Nc3ccncc3)C2)nn1` [Example 52, 1-(6-((1-(4-(Difluoromethyl)phenyl)-4-methyl-1H-1,2,3-triazol-5-yl)methoxy)pyridazin-3-yl)-N-(pyridin-4-yl)azetidine-3-carboxamide], the inhibitory constant (Ki) in experiment [1] (read-out: α5-GABAAR Ki) was determined as 1.1 nM. The inhibition at 0.1 µM in experiment [2] is 45.9%.

With `Cc1nnn(-c2ccc(C(F)F)cc2)c1COc1ccc(N2CCN(CC3CC3)C(=O)C2)nn1` [Example 97, 1-(Cyclopropylmethyl)-4-(6-((1-(4-(difluoromethyl)phenyl)-4-methyl-1H-1,2,3-triazol-5-yl)methoxy)pyridazin-3-yl)piperazin-2-one], in experiment [1] (α5-GABAAR Ki), the Ki is 1.11 nM. For the same compound, the inhibition at 0.1 µM in experiment [2] is 49.2%.

For `Cc1nnn(-c2ccc(C(F)F)cc2)c1COc1ccc(N2CCN3CC(CC(C)C)NC(=O)[C@@H]3C2)nn1` (single isomer, unassigned) [Example 208], the Ki in experiment [1] (read-out: α5-GABAAR Ki) came to 1.96 nM. In addition, the inhibition at 0.1 µM in experiment [2] was determined as 55.9%.

On to `O=C(O)c1ccc(CCCN2CCN(c3ccc(OCc4c(Cl)nnn4-c4ccc(C(F)F)cc4)nn3)CC2=O)cc1` [Example 146, 4-(3-(4-(6-((4-Chloro-1-(4-(difluoromethyl)phenyl)-1H-1,2,3-triazol-5-yl)methoxy)pyridazin-3-yl)-2-oxopiperazin-1-yl)propyl)benzoic acid], for which the Ki in experiment [1] (read-out: α5-GABAAR Ki) came out at 4.44 nM. Besides, the inhibition at 0.1 µM in experiment [2] was found to be 56.5%.

In general, Ki refers to a measure of affinity in units of concentration, obtained from inhibition or displacement.
